Measured values published in patent publication US20250381161A1, “COMPOSITIONS AND METHODS FOR TREATING HEARING AND OCULAR DISORDERS” (Anida Pharma Inc., priority 2022, published 2025).

Experiment: Release of compound 1 in artificial tear medium from dialysis tubes into artificial tear fluid, quantified via HPLC
Format: physicochemical
Details: room temperature, 100 rpm
Description: 0.5 mL of unformulated compound 1 dissolved in artificial tear medium (i.e., equivalent to physiological buffer solution/PBS) was filled into dialysis tubes (Spectra/Por® Biotech CE MWCO 100-500, 10 mm), sealed and immersed into containers filled with 5 mL artificial tear fluid (ATF) serving as release medium (Table 2). The samples were incubated at room temperature and shaken at 100 rpm. After 0 hours, 0.5 hours, 1 hour, 2 hours, 4 hours and 24 hours, samples were withdrawn and the amount of released compound 1 was quantified via HPLC.

CC/C=C\C[C@H](O)\C=C/C=C/C=C/[C@H](O)C/C=C\C/C=C\CCC(=O)[O-].[Na+] [Compound 1, Sodium (4Z,7Z,10R,11E,13E,15Z,17S, 19Z)-10,17-dihydroxydocosa-4,7,11,13,15,19-hexaenoate]
Release (%) (time point 0.5 h): 0.8%
Release (%) (time point 1 h): 2%
Release (%) (time point 2 h): 7%
Release (%) (time point 4 h): 17%
Release (%) (time point 24 h): 59%
